{"source": "paper PMC10535741", "about": "“Styrylpyridinium Derivatives for Fluorescent Cell Imaging” (Pharmaceuticals, 2023)", "tested_on": "BMDMs", "experiment": "Nitric oxide production of pre-stained macrophages polarised to M1 phenotype (Griess test)", "format": "cell-based, mouse", "conditions": "after 2 days activation with IFNγ and PAM3SCK4; 5-50 μM 6e", "experimental": "The impact of SP compound 6e on the BMDMs’ functional characteristics was also assessed by performing cell differentiation into the M1 phenotype in the presence of compound 6e. The BMDMs were treated with 5–50 μM compound 6e and the cell medium was replaced with a macrophage differentiation medium containing recombinant mouse interferon-gamma (IFNγ) and the TLR2/1 ligand PAM3SCK4 to ensure M1 polarisation. Activated cells express proinflammatory molecules (cytokines and chemokines), as well as nitric oxide (NO) as the main features of their proinflammatory M1-like macrophage phenotype. To verify the NO level in cell culture media, nitrites, as nitric oxide oxidation products, were measured by the standard Griess test. […]\nFor polarisation of macrophages to the pro-inflammatory M1 phenotype, the BMDM cells stained in a 12-well plate were used. […] After two days of activation, the nitric oxide levels (as a main signal of M1 polarisation) were measured in cell supernatants of activated (M1) and non-activated (M0) cells. The amount of nitric oxide was determined via a nitric oxide assay kit (Cat. No. EMSNO; Invitrogen). Briefly, 50 µL of cell culture media was collected from each well, clarified by centrifugation, and used for NO quantification. The nitrite standards provided by the kit were used for standard curve generation and NO quantification. […]"}
{"smiles": "CCCCCCCCCCCCCCCC[n+]1ccc(C=CC=Cc2cc3c4c(c2)CCCN4CCC3)cc1.[Br-]", "note": "[Compound 6e, 1-hexadecyl-4-(4-(2,3,6,7-tetrahydro-1H,5H-pyrido[3,2,1-ij]quinolin-9-yl)buta-1,3-dien-1-yl)pyridin-1-ium bromide]", "values": [{"measurement": "NO production of stained BMDMs", "value": "up to 21.5 µM"}]}
